# Assay results: US6379652B1, “Oral compositions for reducing mouth odors” (Colgate Palmolive Company, priority 2000, dated 2002)
# Test system: F. nucleatum
# Test: MIC assay for bactericidal activity (microtiter format)
# Assay type: cell-based
# Design: MIC Value: unit not given here
# Conditions: for MIC Value: individual flavors, 1% by weight solution in ethanol, F. nucleatum, lower = more effective; for bactericidal activity against F. nucleatum (in words): summary of Table I
# Protocol: A 1% by weight solution in ethanol of a series of individual essential oil flavors were prepared and evaluated in an MIC assay for bactericidal activity against F. nucleatum. The bacterial strain F. nucleatum is implicated in the occurrence of oral malodor.
# The bacterial strains of F. nucleatum were grown […] in thioglycolate broth for 48 hours at 37° C. The optical density at 610 nm was adjusted to between 0.1 to 0.2 prior the MIC determination.
# MIC determinations were performed using the microtiter format according to standard procedures (Manual of clinical Microbiology, 1995).
# The procedure of Example 1 was repeated except combinations of various flavor compounds were evaluated for antibacterial efficacy via the MIC assay.
Structure (SMILES),MIC Value,bactericidal activity against F. nucleatum (in words)
C=CCc1ccc(O)c(OC)c1 [Eugenol],250,good bactericidal activity
O=C/C=C/c1ccccc1 [Cinnamic aldehyde],125,good bactericidal activity
CC12CCC(CC1)C(C)(C)O2 [Eucalyptol],500,–
CC=Cc1ccc(OC)cc1 [Anethol],500,–
CC(C)[C@@H]1CC[C@@H](C)C[C@H]1O [L-menthol],500,–
Cc1ccc(C(C)C)c(O)c1 [Thymol],125,good bactericidal activity
